One assay has as its target T1, HDAC6 enzyme (Homo sapiens, UniProt Q9UBN7).
T1 construct: prepared by transducing full length HDAC1 and HDAC6 genes into Sf-9 insect cells; GST; purchased SignalChem; host or cells: Sf-9 insect cells
T1 sequence (Q9UBN7 1-1215): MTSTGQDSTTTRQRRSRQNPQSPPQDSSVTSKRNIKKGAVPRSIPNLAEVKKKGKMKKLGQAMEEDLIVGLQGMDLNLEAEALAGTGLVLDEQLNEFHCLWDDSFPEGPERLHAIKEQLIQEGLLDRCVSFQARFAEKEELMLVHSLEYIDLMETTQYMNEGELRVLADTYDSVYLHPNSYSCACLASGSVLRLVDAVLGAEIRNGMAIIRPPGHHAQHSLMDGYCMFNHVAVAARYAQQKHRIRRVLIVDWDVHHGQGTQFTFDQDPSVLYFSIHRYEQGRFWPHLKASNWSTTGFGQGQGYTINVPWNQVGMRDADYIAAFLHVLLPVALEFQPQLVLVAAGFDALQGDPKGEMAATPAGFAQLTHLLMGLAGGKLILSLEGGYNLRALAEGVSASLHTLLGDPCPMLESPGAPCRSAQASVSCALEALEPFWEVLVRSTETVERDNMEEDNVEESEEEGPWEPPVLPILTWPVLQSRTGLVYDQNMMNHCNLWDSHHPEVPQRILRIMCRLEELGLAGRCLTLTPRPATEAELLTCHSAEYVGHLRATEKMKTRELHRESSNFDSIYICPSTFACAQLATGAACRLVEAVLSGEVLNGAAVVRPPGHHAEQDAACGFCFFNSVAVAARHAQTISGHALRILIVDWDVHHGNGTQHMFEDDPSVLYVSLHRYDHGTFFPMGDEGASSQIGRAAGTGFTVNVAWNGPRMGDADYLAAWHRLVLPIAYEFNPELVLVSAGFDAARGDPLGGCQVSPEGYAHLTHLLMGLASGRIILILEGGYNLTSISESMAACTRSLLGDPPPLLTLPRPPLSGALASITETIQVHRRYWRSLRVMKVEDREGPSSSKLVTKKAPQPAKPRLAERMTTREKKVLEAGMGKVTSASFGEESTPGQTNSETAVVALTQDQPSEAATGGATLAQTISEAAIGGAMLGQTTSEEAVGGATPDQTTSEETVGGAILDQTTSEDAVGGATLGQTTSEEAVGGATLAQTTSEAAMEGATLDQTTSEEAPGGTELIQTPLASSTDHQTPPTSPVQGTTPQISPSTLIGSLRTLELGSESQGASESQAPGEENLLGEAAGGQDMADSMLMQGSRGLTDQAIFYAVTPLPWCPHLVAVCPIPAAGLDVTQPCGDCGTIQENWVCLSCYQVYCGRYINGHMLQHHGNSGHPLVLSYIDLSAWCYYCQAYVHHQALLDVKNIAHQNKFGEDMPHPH
The experiment in a line: HDAC6 enzyme inhibitory assay (HDAC-Glo I/II Assay kit). The assay is classed as biochemical. Conditions: 1 μM test compound; read-out: HDAC6 inhibitory rate (%) (1 μM). The method, boiled down: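 Full-length GST-purified HDAC1 or HDAC6 (Sf-9 expressed) preincubated 60 min at room temperature with compound in Tris-HCl pH 7.5 buffer with glutathione and Tween-20. HDAC-Glo substrate-developer added, 20 min at room temperature, then luminescence read; inhibition relative to no-enzyme wells as 100%.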

The next assay addresses T2, HDAC1 enzyme (Homo sapiens, UniProt Q13547).
T2 construct: prepared by transducing full length HDAC1 and HDAC6 genes into Sf-9 insect cells; GST; purchased SignalChem; host or cells: Sf-9 insect cells
The experiment in a line: HDAC1 enzyme inhibitory assay (HDAC-Glo I/II Assay kit). Type of assay: biochemical. The settings on record: 1 μM test compound; read-out: HDAC1 inhibitory rate (%) (1 μM). The procedure:
HDAC1 enzyme and HDAC6 enzyme each prepared by transducing full length HDAC1 and HDAC6 genes into Sf-9 insect cells and purifying by GST affinity column were purchased from SignalChem. Using these enzymes, HDAC1 and/or HDAC6 enzyme inhibitory activities of the compound of the present invention were evaluated. Enzymes were used after preserved at −70° C. HDAC1 or HDAC6 enzyme inhibitory activity of the compound of the present invention was measured using HDAC-Glo™ I/II Assay kit (Promega) according to the following experimental method. The test compound diluted with assay buffer (24 mM Tris-HCl (pH 7.5), 1 mM MgCl2, 0.35 mM KCl, 135 mM NaCl, 0.6 mM Glutathione, 0.01% Tween-20) was added to a 384-well plate by each 2 μL. Then, HDAC1 or HDAC6 enzyme solution diluted with assay buffer was added thereto by each 4 μL, and the plate was incubated at room temperature for 60 min. After incubated, HDAC substrate-Developer solution prepared according to Promega protocol attached to the assay kit was added to the 384-well plate by each 2 μL, and the enzyme reaction was started. After reacting at room temperature for 20 min, luminescence level was measured using plate reader Envision (PerkinElmer). The inhibitory activity of each compound was calculated as a relative activity value when luminescence level in wells without enzyme is considered as 100% inhibition.

The structures appear in SMILES notation.

T2 sequence (Q13547 whole entry): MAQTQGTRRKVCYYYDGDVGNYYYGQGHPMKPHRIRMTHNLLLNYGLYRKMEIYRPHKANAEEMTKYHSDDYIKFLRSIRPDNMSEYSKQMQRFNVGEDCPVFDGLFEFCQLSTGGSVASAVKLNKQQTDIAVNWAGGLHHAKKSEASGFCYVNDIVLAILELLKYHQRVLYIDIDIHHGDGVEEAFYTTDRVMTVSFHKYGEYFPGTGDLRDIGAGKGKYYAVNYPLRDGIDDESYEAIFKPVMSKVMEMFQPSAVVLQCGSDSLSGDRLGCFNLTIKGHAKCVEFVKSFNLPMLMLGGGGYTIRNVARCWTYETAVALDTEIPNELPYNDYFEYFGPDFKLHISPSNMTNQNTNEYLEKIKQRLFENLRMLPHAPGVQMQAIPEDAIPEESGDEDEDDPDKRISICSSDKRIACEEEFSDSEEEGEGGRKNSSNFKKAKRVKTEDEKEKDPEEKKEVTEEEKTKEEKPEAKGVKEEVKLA

As for `Cc1cccc(C(=O)N2CCOCC2CNC(=O)c2ccc(-c3noc(C(F)(F)F)n3)cc2)c1` (centres unmarked) [Example 10, N-((4-(3-methylbenzoyl)morpholin-3-yl)methyl)-4-(5-(trifluoromethyl)-1,2,4-oxadiazol-3-yl)benzamide], the inhibition at 1 µM at HDAC6 enzyme amounted to 104%; on HDAC1 enzyme, 18%.
For the compound `Cc1ccc(C(=O)N2CCOCC2CNC(=O)c2ccc(-c3noc(C(F)(F)F)n3)cc2)cc1` (centres unmarked) [Example 11, N-((4-(4-methylbenzoyl)morpholin-3-yl)methyl)-4-(5-(trifluoromethyl)-1,2,4-oxadiazol-3-yl)benzamide], the inhibition at 1 µM came out at 99% on HDAC6 enzyme and 21% on HDAC1 enzyme.
With `O=C(NCC1COCCN1C(=O)c1ccccn1)c1ccc(-c2noc(C(F)(F)F)n2)cc1` (centres unmarked) [Example 12, N-((4-(pyridin-2-ylcarbonyl)morpholin-3-yl)methyl)-4-(5-(trifluoromethyl)-1,2,4-oxadiazol-3-yl)benzamide], the inhibition at 1 µM amounted to 98% at HDAC6 enzyme and 7% on HDAC1 enzyme.
As for `O=C(NCC1COCCN1C(=O)c1cccnc1)c1ccc(-c2noc(C(F)(F)F)n2)cc1` (centres unmarked) [Example 13, N-((4-(pyridin-3-ylcarbonyl)morpholin-3-yl)methyl)-4-(5-(trifluoromethyl)-1,2,4-oxadiazol-3-yl)benzamide], the inhibition at 1 µM at HDAC6 enzyme is 97%; at HDAC1 enzyme it was 13%.
In the same order, the values of `O=C(NCC1COCCN1C(=O)c1ccncc1)c1ccc(-c2noc(C(F)(F)F)n2)cc1` (centres unmarked) [Example 14, N-((4-isonicotinoylmorpholin-3-yl)methyl)-4-(5-(trifluoromethyl)-1,2,4-oxadiazol-3-yl)benzamide] are 98% and 20%.
For the compound `O=C(NCC1COCCN1C(=O)c1cccs1)c1ccc(-c2noc(C(F)(F)F)n2)cc1` (centres unmarked) [Example 15, N-((4-(2-thienylcarbonyl)morpholin-3-yl)methyl)-4-(5-(trifluoromethyl)-1,2,4-oxadiazol-3-yl)benzamide], the figures for the inhibition at 1 µM at HDAC6 enzyme and on HDAC1 enzyme were 98% and 20%, respectively.
On to `Cn1nc(C(=O)N2CCOCC2CNC(=O)c2ccc(-c3noc(C(F)(F)F)n3)cc2)c2ccccc21` (centres unmarked) [Example 18, N-((4-((1-methyl-1H-indazol-3-yl)carbonyl)morpholin-3-yl)methyl)-4-(5-(trifluoromethyl)-1,2,4-oxadiazol-3-yl)benzamide], for which the inhibition at 1 µM on HDAC6 enzyme stood at 98%; on HDAC1 enzyme, 9%.
With `O=C(NCC1COCCN1C(=O)c1cc2ccccc2o1)c1ccc(-c2noc(C(F)(F)F)n2)cc1` (centres unmarked) [Example 19, N-((4-(1-benzofuran-2-ylcarbonyl)morpholin-3-yl)methyl)-4-(5-(trifluoromethyl)-1,2,4-oxadiazol-3-yl)benzamide], the inhibition at 1 µM at HDAC6 enzyme turned out to be 98%; on HDAC1 enzyme it was 24%.
In the case of `O=C(NCC1COCCN1C(=O)c1ccc2nccn2c1)c1ccc(-c2noc(C(F)(F)F)n2)cc1` (centres unmarked) [Example 20, N-((4-(imidazo[1,2-a]pyridin-6-ylcarbonyl)morpholin-3-yl)methyl)-4-(5-(trifluoromethyl)-1,2,4-oxadiazol-3-yl)benzamide], the inhibition at 1 µM on HDAC6 enzyme turned out to be 99%; on HDAC1 enzyme, 20%.
In the same order, the values of `O=C(NCC1COCCN1C(=O)Cc1cccs1)c1ccc(-c2noc(C(F)(F)F)n2)cc1` (centres unmarked) [Example 21, N-((4-(2-thienylacetyl)morpholin-3-yl)methyl)-4-(5-(trifluoromethyl)-1,2,4-oxadiazol-3-yl)benzamide] are 97% and 28%.
Regarding `O=C(NCC1COCCN1C(=O)CCc1ccccc1)c1ccc(-c2noc(C(F)(F)F)n2)cc1` (centres unmarked) [Example 22, N-((4-(3-phenylpropanoyl)morpholin-3-yl)methyl)-4-(5-(trifluoromethyl)-1,2,4-oxadiazol-3-yl)benzamide], the inhibition at 1 µM came to 100% on HDAC6 enzyme and 23% at HDAC1 enzyme.
As for `O=C(NCC1COCCN1C(=O)c1ccc(-c2ccccc2)cc1)c1ccc(-c2noc(C(F)(F)F)n2)cc1` (centres unmarked) [Example 23, N-((4-(biphenyl-4-ylcarbonyl)morpholin-3-yl)methyl)-4-(5-(trifluoromethyl)-1,2,4-oxadiazol-3-yl)benzamide], the inhibition at 1 µM on HDAC6 enzyme was 95%; at HDAC1 enzyme, 36%.
The matching figures for `O=C(NCC1COCCN1C(=O)C1CC1)c1ccc(-c2noc(C(F)(F)F)n2)cc1` (centres unmarked) [Example 24, N-((4-(cyclopropylcarbonyl)morpholin-3-yl)methyl)-4-(5-(trifluoromethyl)-1,2,4-oxadiazol-3-yl)benzamide]: 93% and 8%.
`O=C(NCC1COCCN1C(=O)C1CCCCC1)c1ccc(-c2noc(C(F)(F)F)n2)cc1` (centres unmarked) [Example 25, N-((4-(cyclohexylcarbonyl)morpholin-3-yl)methyl)-4-(5-(trifluoromethyl)-1,2,4-oxadiazol-3-yl)benzamide]: the inhibition at 1 µM on HDAC6 enzyme was found to be 102%; at HDAC1 enzyme it was 20%.
Consider `O=C(NCC1COCCN1C(=O)C1CCOCC1)c1ccc(-c2noc(C(F)(F)F)n2)cc1` (centres unmarked) [Example 26, N-((4-(tetrahydro-2H-pyran-4-ylcarbonyl)morpholin-3-yl)methyl)-4-(5-(trifluoromethyl)-1,2,4-oxadiazol-3-yl)benzamide], for which the figures for the inhibition at 1 µM on HDAC6 enzyme and on HDAC1 enzyme were 95% and 10%, respectively.
For `O=C(NCC1COCCN1C(=O)c1cccc(C(F)(F)F)c1)c1ccc(-c2noc(C(F)(F)F)n2)cc1` (centres unmarked) [Example 27, N-((4-(3-(trifluoromethyl)benzoyl)morpholin-3-yl)methyl)-4-(5-(trifluoromethyl)-1,2,4-oxadiazol-3-yl)benzamide], the inhibition at 1 µM on HDAC6 enzyme is 99%; at HDAC1 enzyme, 14%.
The matching figures for `N#Cc1cccc(C(=O)N2CCOCC2CNC(=O)c2ccc(-c3noc(C(F)(F)F)n3)cc2)c1` (centres unmarked) [Example 28, N-((4-(3-cyanobenzoyl)morpholin-3-yl)methyl)-4-(5-(trifluoromethyl)-1,2,4-oxadiazol-3-yl)benzamide]: 98% and 14%.
`COc1cccc(C(=O)N2CCOCC2CNC(=O)c2ccc(-c3noc(C(F)(F)F)n3)cc2)c1` (centres unmarked) [Example 29, N-((4-(3-methoxybenzoyl)morpholin-3-yl)methyl)-4-(5-(trifluoromethyl)-1,2,4-oxadiazol-3-yl)benzamide]: the values for the inhibition at 1 µM on HDAC6 enzyme and on HDAC1 enzyme were 99% and 19%, respectively.
As for `O=C(NCC1COCCN1C(=O)c1cc(Cl)cc(Cl)c1)c1ccc(-c2noc(C(F)(F)F)n2)cc1` (centres unmarked) [Example 30, N-((4-(3,5-dichlorobenzoyl)morpholin-3-yl)methyl)-4-(5-(trifluoromethyl)-1,2,4-oxadiazol-3-yl)benzamide], the results for the inhibition at 1 µM at HDAC6 enzyme and on HDAC1 enzyme were 98% and 24%, respectively.
